In US7045532B2 (Millennium Pharmaceuticals, Inc., priority 1999, dated 2006):
Read-outs that look alike come from different tables or passages of the source.

Legend:
[1] = target: T1, ACE (Sigma, A2580) (Sus scrofa, UniProt F1RRW5); assay: ACE enzymatic activity assay; type: biochemical, porcine; conditions: Ki class, compounds tested in 5% DMSO
T1 construct: ACE from porcine kidney; purchased Sigma A2580; host or cells: porcine kidney
T1 sequence (F1RRW5 34-1309): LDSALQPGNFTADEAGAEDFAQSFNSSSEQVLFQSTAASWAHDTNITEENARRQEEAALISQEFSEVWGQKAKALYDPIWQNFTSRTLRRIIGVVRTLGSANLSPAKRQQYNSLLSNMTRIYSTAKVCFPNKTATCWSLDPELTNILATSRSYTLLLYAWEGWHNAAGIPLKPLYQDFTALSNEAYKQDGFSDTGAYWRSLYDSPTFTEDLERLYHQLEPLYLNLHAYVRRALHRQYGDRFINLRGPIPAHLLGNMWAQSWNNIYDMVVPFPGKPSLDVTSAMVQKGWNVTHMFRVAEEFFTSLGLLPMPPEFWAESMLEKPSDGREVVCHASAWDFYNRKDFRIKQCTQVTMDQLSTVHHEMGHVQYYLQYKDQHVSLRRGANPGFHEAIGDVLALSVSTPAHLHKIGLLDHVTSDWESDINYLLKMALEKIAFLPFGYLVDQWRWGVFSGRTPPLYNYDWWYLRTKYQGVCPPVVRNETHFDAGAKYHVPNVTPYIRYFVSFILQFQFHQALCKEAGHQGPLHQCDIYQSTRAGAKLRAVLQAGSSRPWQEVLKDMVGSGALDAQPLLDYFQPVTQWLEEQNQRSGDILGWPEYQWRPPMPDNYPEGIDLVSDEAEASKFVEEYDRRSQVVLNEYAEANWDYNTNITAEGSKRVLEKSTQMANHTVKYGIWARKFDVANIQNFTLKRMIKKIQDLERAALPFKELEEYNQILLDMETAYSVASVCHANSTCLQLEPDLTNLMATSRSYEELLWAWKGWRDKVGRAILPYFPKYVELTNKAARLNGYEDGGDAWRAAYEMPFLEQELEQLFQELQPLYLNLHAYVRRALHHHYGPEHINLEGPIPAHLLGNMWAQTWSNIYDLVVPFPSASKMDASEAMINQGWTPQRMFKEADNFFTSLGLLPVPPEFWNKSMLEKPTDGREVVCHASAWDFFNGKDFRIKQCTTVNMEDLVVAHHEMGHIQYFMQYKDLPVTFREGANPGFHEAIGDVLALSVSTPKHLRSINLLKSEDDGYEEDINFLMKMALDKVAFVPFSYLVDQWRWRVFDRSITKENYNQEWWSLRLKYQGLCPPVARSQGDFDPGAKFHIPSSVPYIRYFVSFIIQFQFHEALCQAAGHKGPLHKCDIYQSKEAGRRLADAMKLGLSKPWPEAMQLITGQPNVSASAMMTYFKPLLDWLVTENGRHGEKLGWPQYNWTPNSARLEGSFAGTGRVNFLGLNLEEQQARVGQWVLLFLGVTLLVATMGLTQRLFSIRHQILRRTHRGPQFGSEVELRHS
Description: ACE (Sigma, A2580) enzymatic activity was assayed in microtiter plates using the following protocol. ACE assay buffer was made from 50 mM HEPES (Sigma), 300 mM sodium chloride (Sigma), and 0.01% Brij-35 (Pierce Chemical Co) at pH 7.5.
Reactions were mixed and incubated at 25° C. Enzymatic cleavage of the substrate is marked by a fluorescence change (excitation 330 nm, emission 415 nm).
The activity of the test compounds was investigated using the procedure outlined above. The compounds were tested in 5% DMSO. Enzyme activity was measured at 12 compound concentrations. […]. […]

[2] = target: T2, ACE-2 (Homo sapiens, UniProt Q9BYF1); assay: ACE-2 Competitive Substrate Assay (ACS Assay); type: biochemical
T2 construct: a stop codon inserted after the serine immediately preceding the transmembrane domain; made in house; host or cells: CHO K1 cells (transient transfection, purified from conditioned medium)

[3] = target: T3, Carboxypeptidase A (Bos taurus, UniProt P00730); assay: Carboxypeptidase A activity assay; type: biochemical; conditions: Ki class, compounds tested in 5% DMSO
T3 sequence (P00730 111-419): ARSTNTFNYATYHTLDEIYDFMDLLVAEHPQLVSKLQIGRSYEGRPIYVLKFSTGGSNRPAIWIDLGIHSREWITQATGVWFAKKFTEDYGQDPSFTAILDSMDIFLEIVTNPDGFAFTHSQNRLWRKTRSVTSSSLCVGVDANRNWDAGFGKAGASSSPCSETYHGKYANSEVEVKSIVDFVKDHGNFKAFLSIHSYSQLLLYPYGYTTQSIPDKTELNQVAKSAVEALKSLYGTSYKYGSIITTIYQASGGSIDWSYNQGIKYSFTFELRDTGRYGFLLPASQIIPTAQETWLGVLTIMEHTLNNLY
Description: Carboxypeptidase A activity was measured using a literature assay (Holmquist and Riordan, “Carboxypeptidase A,” Methods of Enzymatic Analysis (1984) p. 44–60). The assay was adapted to a 96 well format by adjusting to a 300 μL assay volume and using ultra-thin bottom plates (Costar/Corning) read at 328 nm. The assay was stopped using EDTA.
The activity of the test compounds was investigated using the procedure outlined above. The compounds were tested in 5% DMSO. Enzyme activity was measured at 12 compound concentrations. The Ki was calculated by using Ki=Kiapp/(1+[S]/Km).
To determine whether a test compound is capable of modulating carboxypeptidase A's ability to cleave a substrate the method described in Holmquist and Riordan, Carboxypeptidase A, p44–60, Peptidase and Their Inhibitors in Method of Enzymatic Analysis (1984), may be used.
The assay may be adapted to a 96 well format by adjusting to a 300 μl assay volume and using ultrathin bottom plates (Costar/Coming) read at 328 nm with a final assay volume of 300 μl. The assay may be stopped using EDTA.

[4] = Ki class, compounds tested in 5% DMSO, 12 concentrations, read-out: Human ACE-2 Activity
[5] = Ki class, compounds tested in 5% DMSO, 12 compound concentrations, Ki=Kiapp/(1+[S]/Km), read-out: Human ACE-2 Activity
[6] = Table 3, very good ACE-2 inhibiting compounds, species not given, read-out: ACE-2 Activity, Ki

T2 sequence (Q9BYF1 18-740 limits assumed): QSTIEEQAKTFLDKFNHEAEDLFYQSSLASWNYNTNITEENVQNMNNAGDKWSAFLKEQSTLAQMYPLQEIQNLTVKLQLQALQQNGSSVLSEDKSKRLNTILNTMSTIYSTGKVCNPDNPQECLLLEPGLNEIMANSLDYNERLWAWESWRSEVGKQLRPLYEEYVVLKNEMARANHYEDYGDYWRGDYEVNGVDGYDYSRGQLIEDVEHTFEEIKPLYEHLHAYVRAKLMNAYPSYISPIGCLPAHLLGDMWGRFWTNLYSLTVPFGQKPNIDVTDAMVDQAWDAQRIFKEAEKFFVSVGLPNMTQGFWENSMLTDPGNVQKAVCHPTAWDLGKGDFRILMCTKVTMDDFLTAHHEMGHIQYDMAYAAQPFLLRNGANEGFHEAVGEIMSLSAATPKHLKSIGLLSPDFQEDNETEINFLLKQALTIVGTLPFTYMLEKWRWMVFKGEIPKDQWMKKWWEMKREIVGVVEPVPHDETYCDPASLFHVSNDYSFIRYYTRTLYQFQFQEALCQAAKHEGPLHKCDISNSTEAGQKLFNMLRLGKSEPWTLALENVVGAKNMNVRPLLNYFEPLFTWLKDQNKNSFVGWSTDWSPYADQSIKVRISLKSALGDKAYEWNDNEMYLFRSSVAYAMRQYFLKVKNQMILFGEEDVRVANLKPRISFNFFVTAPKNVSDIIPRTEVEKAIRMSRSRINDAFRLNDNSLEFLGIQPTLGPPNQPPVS

Row | SMILES | Ki ([1]; 12 concentrations) [µM] | Ki [2, 4] [µM] | Ki ([3]; 12 concentrations) [µM] | Ki ([1]; 12 compound concentrations) [µM] | Ki [2, 5] [µM] | Ki [2, 6] [µM] | Ki ([3]; 12 compound concentrations) [µM]
1 | CCC(N[C@@H](Cc1c[nH]cn1)C(=O)O)C(=O)O (stereo partly shown) | > 50 | > 0.5 | > 50 | – | – | – | –
2 | CC(=O)N(C(CCc1ccccc1)C(=O)O)[C@@H](CC(C)C)C(=O)O (single isomer, unassigned) [AT, 2-[Acetyl-(1-carboxy-3-phenyl-propyl)-amino]-4-methyl-pentanoic acid] | > 50 | > 0.5 | > 50 | – | – | – | –
3 | CCCCC(CC(=O)O)N[C@@H](Cc1c[nH]cn1)C(=O)O (single isomer, unassigned) [ES, 3-[1-Carboxy-2-(1H-imidazol-4-yl)-ethylamino]heptanoic acid] | > 50 | > 0.5 | > 50 | – | – | – | –
4 | CC(C)CC(N[C@@H](Cc1cncn1COCc1ccccc1)C(N)=O)C(=O)O (single isomer, unassigned) [FB, 2-[2-(3-Benzyloxymethyl-3H-imidazol-4-yl)-1-carbamoyl-ethylamino]-4-methyl-pentanoic acid] | > 50 | > 0.5 | > 50 | – | – | – | –
5 | CC(C)CC(N[C@@H](CNc1ccccc1)C(=O)O)C(=O)O (single isomer, unassigned) [FI, 2-(1-Carboxy-2-phenylamino-ethylamino)-4-methyl-pentanoic acid] | > 50 | > 0.5 | > 50 | – | – | – | –
6 | CC(C)CC(N[C@@H](Cc1cncn1COCc1ccccc1)C(=O)NCCc1ccccc1)C(=O)O (single isomer, unassigned) [FM, 2-[2-(3-Benzyloxymethyl-3H-imidazol-4-yl)-1-phenethylcarbamoyl-ethylamino]-4-methyl-pentanoic acid] | > 50 | > 0.5 | > 50 | – | – | – | –
7 | CC(C)CC(N[C@@H](Cc1cncn1Cc1ccc(C(=O)O)cc1)C(=O)O)C(=O)O (single isomer, unassigned) [GO, 4-[5-[2-Carboxy-2-(1-carboxy-3-methyl-butylamino)-ethyl]-imidazol-1-ylmethyl]-benzoic acid] | > 50 | > 0.5 | > 50 | – | – | – | –
8 | CC(C)CC(N[C@@H](Cc1cncn1Cc1ccc(C#N)cc1)C(=O)O)C(=O)O (single isomer, unassigned) [HA, 2-[1-Carboxy-2-[3-(4-cyano-benzyl)-3H-imidazol-4-yl]-ethylamino)4-methyl-pentanoic acid] | – | – | – | 10 to 50 | < 0.1 | 0.05 to 0.1 | 10 to 50
9 | CC(C)CC(N[C@@H](Cc1cncn1Cc1ccc(C(C)(C)C)cc1)C(=O)O)C(=O)O (single isomer, unassigned) [HY, 2-[2-[3-(4-tert-Butyl-benzyl)-3H-imidazol-4-yl]-1-carboxy-ethylamino)-4-methyl-pentanoic acid] | – | – | – | < 10 | < 0.1 | 0.05 to 0.1 | < 10
10 | O=C(O)C(CCc1ccccc1)N1CCC[C@H]1C(=O)O (stereo in doubt) [AC, 1-(1-Carboxy-3-phenyl-propyl)-pyrrolidine-2-carboxylic acid] | > 50 | > 0.5 | > 50 | – | – | – | –
11 | CC(C)CC(N[C@@H](Cc1c[nH]cn1)C(=O)O)C(=O)O (stereo in doubt) [AE, 2-[1-Carboxy-2-(1H-imidazol-4-yl)-ethylamino]4-methyl-pentanoic acid] | > 50 | > 0.5 | > 50 | – | – | – | –
12 | CCCC(N[C@@H](Cc1c[nH]cn1)C(=O)O)C(=O)O (stereo in doubt) [AF, 2-[1-Carboxy-2-(1H-imidazol-4-yl)-ethylamino]pentanoic acid] | > 50 | > 0.5 | > 50 | – | – | – | –
13 | CCCC(N[C@@H](CCSC)C(=O)O)C(=O)O (stereo in doubt) [AO, 2-(1-Carboxy-3-methylsulfanyl-propylamino)-pentanoic acid] | > 50 | > 0.5 | > 50 | – | – | – | –
14 | CCCC(N[C@@H](CC(C)C)C(=O)O)C(=O)O (stereo in doubt) [AQ, 2-(1-Carboxy-butylamino)-4-methyl-pentanoic acid] | > 50 | > 0.5 | > 50 | – | – | – | –
15 | CC(C)C[C@H](NC(C(=O)O)c1ccc(C(F)(F)F)cc1)C(=O)O (stereo in doubt) [AR, 2-{[Carboxy-(4-trifluoromethyl-phenyl)-methyl]-amino}-4-methyl-pentanoic acid] | > 50 | > 0.5 | > 50 | – | – | – | –
16 | CC(C)CC(N[C@H](CC(=O)O)Cc1ccsc1)C(=O)O (stereo in doubt) [EJ, 2-(1-Carboxymethyl-2-thiophen-3-yl-ethylamino)-4-methyl-pentanoic acid] | > 50 | > 0.5 | > 50 | – | – | – | –
17 | CCCC(N[C@@H](Cc1ccccc1)C(=O)O)C(=O)O (stereo partly shown) [AA, 2-(1-Carboxy-2-phenyl-ethylamino)-pentanoicacid] | > 50 | > 0.5 | > 50 | – | – | – | –
18 | O=C(O)C(CO)N[C@@H](CCc1ccccc1)C(=O)O (stereo partly shown) [AB, 2-(1-Carboxy-2-hydroxy-ethylamino)-4-phenyl-butync acid] | > 50 | > 0.5 | > 50 | – | – | – | –
19 | CC(N[C@@H](Cc1c[nH]c2ccccc12)C(=O)O)C(=O)O (stereo partly shown) [AG, 2-(1-Carboxy-ethylamino)-3-(1H-indol-3-yl)-propionic acid] | > 50 | > 0.5 | > 50 | – | – | – | –
20 | CC(NC(Cc1cccs1)C(=O)O)C(=O)O (stereo not shown) [AH, 2-(1-Carboxy-ethylamino)-3-thiophen-2-yl-propionic acid] | > 50 | > 0.5 | > 50 | – | – | – | –
21 | CCCC(NC(Cc1cccs1)C(=O)O)C(=O)O (stereo not shown) [AI, 2-(1-Carboxy-2-thiophen-2-yl-ethylamino)-pentanoic acid] | > 50 | > 0.5 | > 50 | – | – | – | –
22 | O=C(O)C(CCc1ccccc1)N[C@@H](Cc1ccccc1)C(=O)O (stereo partly shown) [AJ, 2-(1-Carboxy-2-phenyl-ethylamino)-4-phenyl-butync acid] | > 50 | > 0.5 | 10 to 50 | – | – | – | –
23 | O=C(O)C(Cc1ccccc1)NC(Cc1cncn1Cc1ccccc1)C(=O)O (stereo not shown) [GE, 3-(3-Benzyl-3H-imidazol-4-yl)-2-(1-carboxy-2-phenyl-ethylamino)-propronic acid] | > 50 | – | > 50 | – | – | – | –
